US9695155B2, “Herbicidal substituted pyrimidinyloxy benzene compounds” (E. I. DU PONT DE NEMOURS AND COMPANY, priority 2013, dated 2017)

Experiments:
Russian thistle [1] = experiment: Test D preemergence; format: in vivo, Salsola kali; set-up: key: 0 = no effect, 100 = complete control
Excerpt: (§1) Seeds of plant species selected from bluegrass (annual bluegrass, Poa annua), blackgrass (Alopecurus myosuroides), canarygrass (littleseed canarygrass, Phalaris minor), chickweed (common chickweed, Stellaria media), galium (catchweed bedstraw, Galium aparine), bromegrass, downy (downy bromegrass, Bromus tectorum), field poppy (Papaver rhoeas), field violet (Viola arvensis), green foxtail (Setaria viridis), deadnettle (henbit deadnettle, Lamium amplexicaule), Italian ryegrass (Lolium multiflorum), kochia (Kochia scoparia), lambsquarters (Chenopodium album), oilseed rape (Brassica napus), pigweed (Amaranthus retroflexus), chamomile (scentless chamomile, Matricaria inodora), Russian thistle (Salsola kali), speedwell (bird's-eye speedwell, Veronica persica), spring barley (Hordeum vulgare), spring wheat (Triticum aestivum), wild buckwheat (Polygonum convolvulus), wild mustard (Sinapis arvensis), wild oat (Avena fatua), wild radish (Raphanus raphanistrum), windgrass (Apera spica-venti), winter barley (Hordeum vulgare), and winter wheat (Triticum aestivum) were planted into a silt loam soil and treated preemergence with test chemicals formulated in a non-phytotoxic solvent mixture which included a surfactant.
(§2) At the same time, these species were planted in pots containing Redi-Earth® planting medium (Scotts Company, 14111 Scottslawn Road, Marysville, Ohio 43041) comprising spaghnum peat moss, vermiculite, wetting agent and starter nutrients and treated with postemergence applications of the test chemicals formulated in the same manner. Plants ranged in height from 2 to 18 cm (1- to 4-leaf stage). Treated plants and controls were maintained in a controlled growth environment for 7 to 21 days after which time all species were compared to controls and visually evaluated. Plant response ratings, summarized in Table D, are based on a scale of 0 to 100 where 0 is no effect and 100 is complete control. A dash (-) response means no test result.

kochia = experiment: Test C preemergence; format: in vivo, Kochia scoparia; settings: for Kochia plant response rating: preemergence, scale 0 (no effect) to 100 (complete control)
Excerpt: (§3) Seeds of plant species selected from blackgrass (Alopecurus myosuroides), Italian ryegrass (Lolium multiflorum), wheat, winter (winter wheat, Triticum aestivum), galium (catchweed bedstraw, Galium aparine), corn (Zea mays), large (Lg) crabgrass (Digitaria sanguinalis), giant foxtail (Setaria faberii), johnsongrass (Sorghum halepense), lambsquarters (Chenopodium album), morningglory (Ipomoea coccinea), yellow nutsedge (Cyperus esculentus), pigweed (Amaranthus retroflexus), ragweed (common ragweed, Ambrosia elatior), soybean (Glycine max), barnyardgrass (Echinochloa crus-galli), oilseed rape (Brassica napus), waterhemp (common waterhemp, Amaranthus rudis), kochia (Kochia scoparia), wild oat (Avena fatua), surinam grass (Brachiaria decumbens), foxtail, green (green foxtail, Setaria viridis), goosegrass (Eleusine indica), bromegrass, downy (downy bromegrass, Bromus tectorum), nightshade (eastern black nightshade, Solanum ptycanthum), cocklebur (common cocklebur, Xanthium strumarium), cupgrass, woolly (woolly cupgrass, Eriochloa villosa), bermudagrass (Cynodon dactylon), sunflower, (common oilseed sunflower, Helianthus annuus), Russian thistle (Salsola kali), and velvetleaf (Abutilon theophrasti) were planted into a blend of loam soil and sand and treated preemergence with test chemicals formulated in a non-phytotoxic solvent mixture which included a surfactant.
(§4) At the same time, plants selected from these crop and weed species and also barley, winter (winter barley, Hordeum vulgare), windgrass (Apera spica-venti), chickweed (common chickweed, Stellaria media), deadnettle (henbit deadnettle, Lamium amplexicaule), and canarygrass (littleseed canarygrass, Phalaris minor) were planted in pots containing Redi-Earth® planting medium (Scotts Company, 14111 Scottslawn Road, Marysville, Ohio 43041) comprising spaghnum peat moss, vermiculite, wetting agent and starter nutrients and treated with postemergence applications of test chemicals formulated in the same manner. Plants ranged in height from 2 to 18 cm (1- to 4-leaf stage) for postemergence treatments. Treated plants and controls were maintained in a greenhouse for 13 to 15 days, after which time all species were compared to controls and visually evaluated. Plant response ratings, summarized in Table C, are based on a scale of 0 to 100 where 0 is no effect and 100 is complete control. A dash (-) response means no test result.

foxtail, green = experiment: Test C preemergence; format: in vivo, Setaria viridis; settings: for Foxtail, Green plant response rating: preemergence, scale 0 (no effect) to 100 (complete control)
Excerpt: as §3, §4

Russian thistle [2] = experiment: Test D postemergence; format: in vivo, Salsola kali
Excerpt: as §1, §2

cocklebur = experiment: Test C preemergence; format: in vivo, Xanthium strumarium; settings: preemergence, scale 0 (no effect) to 100 (complete control)
Excerpt: as §3, §4

surinam grass = experiment: Test C preemergence; format: in vivo, Brachiaria decumbens; settings: for Surinam Grass plant response rating: preemergence, scale 0 (no effect) to 100 (complete control)
Excerpt: as §3, §4

nightshade = experiment: Test C preemergence; format: in vivo, Solanum ptycanthum; settings: preemergence, scale 0 (no effect) to 100 (complete control)
Excerpt: as §3, §4

goosegrass = experiment: Test C preemergence; format: in vivo, Eleusine indica; settings: for Goosegrass plant response rating: preemergence, scale 0 (no effect) to 100 (complete control)
Excerpt: as §3, §4

bromegrass, downy = experiment: Test C preemergence; format: in vivo, Bromus tectorum; settings: for Bromegrass, Downy plant response rating: preemergence, scale 0 (no effect) to 100 (complete control)
Excerpt: as §3, §4

cupgrass, woolly = experiment: Test C preemergence; format: in vivo, Eriochloa villosa; settings: for Cupgrass, Woolly plant response rating: preemergence, scale 0 (no effect) to 100 (complete control)
Excerpt: as §3, §4

[3] = 31 g ai/ha, scale 0 (no effect) to 100 (complete control)
[4] = Preemergence, 31 g ai/ha, scale 0 to 100, 0 no effect, 100 complete control
[5] = 62 g ai/ha, scale 0 to 100 (0 no effect, 100 complete control)
[6] = 125 g ai/ha, scale 0 to 100 (0 no effect, 100 complete control)
[7] = 250 g ai/ha, scale 0 to 100 (0 no effect, 100 complete control)

`FC(F)(F)c1cnn(-c2ccccc2Oc2ncc(Br)cn2)c1` [Compound 18, 5-bromo-2-[2-[4-(trifluoromethyl)-1H-pyrazol-1-yl]phenoxy]pyrimidine] was tested, and the “Plant response rating, Russian Thistle” value (Russian thistle [1]; [3]) was 10, the “Plant response rating, Russian Thistle” value (Russian thistle [1]; 62 g ai/ha, scale 0-100) was 25 and the “Plant response rating, Russian Thistle” value (Russian thistle [1]; 125 g ai/ha, scale 0-100) was 40. The “Plant response rating, Russian Thistle” value (Russian thistle [1]; 250 g ai/ha, scale 0-100) was 95, the “Kochia plant response rating” value (kochia; 62 g ai/ha) was 60 and the “Kochia plant response rating” value (kochia; 125 g ai/ha) was 80. The “Kochia plant response rating” value (kochia; 250 g ai/ha) was 98, the “Plant response rating, Kochia” value (kochia; [4]) was 15 and the “Foxtail, Green plant response rating” value (foxtail, green; 62 g ai/ha) was 90. For the same compound, the “Foxtail, Green plant response rating” value (foxtail, green; 125 g ai/ha) was 90, the “Foxtail, Green plant response rating” value (foxtail, green; 250 g ai/ha) was 90 and the “Plant response rating, Foxtail, Green” value (foxtail, green; [4]) was 85. For the same compound, the “Plant response rating, Russian Thistle” value (Russian thistle [2]; 16 g ai/ha, scale 0-100) was 10, the “Plant response rating, Russian Thistle” value (Russian thistle [2]; 31 g ai/ha, scale 0 to 100 (0 no effect, 100 complete control)) was 5 and the “Plant response rating, Russian Thistle” value (Russian thistle [2]; [5]) was 50. The “Plant response rating, Russian Thistle” value (Russian thistle [2]; [6]) was 60, the “Plant response rating, Russian Thistle” value (Russian thistle [2]; [7]) was 100 and the “Cocklebur plant response rating” value (cocklebur; 62 g ai/ha) was 0. The “Cocklebur plant response rating” value (cocklebur; 250 g ai/ha) was 15, the “Surinam Grass plant response rating” value (surinam grass; 62 g ai/ha) was 30 and the “Surinam Grass plant response rating” value (surinam grass; 125 g ai/ha) was 100. The “Surinam Grass plant response rating” value (surinam grass; 250 g ai/ha) was 100, the “Plant response rating, Surinam Grass” value (surinam grass; [4]) was 20 and the “Nightshade plant response rating” value (nightshade; 62 g ai/ha) was 30. The “Nightshade plant response rating” value (nightshade; 125 g ai/ha) was 80, the “Nightshade plant response rating” value (nightshade; 250 g ai/ha) was 95 and the “Goosegrass plant response rating” value (goosegrass; 62 g ai/ha) was 85. For the same compound, the “Goosegrass plant response rating” value (goosegrass; 125 g ai/ha) was 95, the “Goosegrass plant response rating” value (goosegrass; 250 g ai/ha) was 100 and the “Plant response rating, Goosegrass” value (goosegrass; [4]) was 75. The “Bromegrass, Downy plant response rating” value (bromegrass, downy; 62 g ai/ha) was 10, the “Bromegrass, Downy plant response rating” value (bromegrass, downy; 125 g ai/ha) was 50 and the “Bromegrass, Downy plant response rating” value (bromegrass, downy; 250 g ai/ha) was 95. For the same compound, the “Plant response rating, Bromegrass, Downy” value (bromegrass, downy; [4]) was 0, the “Cupgrass, Woolly plant response rating” value (cupgrass, woolly; 62 g ai/ha) was 55 and the “Cupgrass, Woolly plant response rating” value (cupgrass, woolly; 125 g ai/ha) was 98. For the same compound, the “Cupgrass, Woolly plant response rating” value (cupgrass, woolly; 250 g ai/ha) was 100 and the “Plant response rating, Cupgrass, Woolly” value (cupgrass, woolly; [4]) was 40.

`N#Cc1cccc(Oc2ncc(Cl)cn2)c1-n1cc(-n2ccc(C(F)(F)F)n2)cn1` [Compound 284] was tested, and the “Plant response rating, Russian Thistle” value (Russian thistle [1]; [3]) was 0, the “Plant response rating, Russian Thistle” value (Russian thistle [1]; 125 g ai/ha, scale 0-100) was 20 and the “Plant response rating, Russian Thistle” value (Russian thistle [1]; 250 g ai/ha, scale 0-100) was 30. For the same compound, the “Plant response rating, Russian Thistle” value (Russian thistle [2]; 31 g ai/ha, scale 0-100) was 65, the “Plant response rating, Russian Thistle” value (Russian thistle [2]; [5]) was 75 and the “Plant response rating, Russian Thistle” value (Russian thistle [2]; [6]) was 85. The “Plant response rating, Russian Thistle” value (Russian thistle [2]; [7]) was 95.
